Calls of active or inactive are those of the source. The rule behind the calls is not given here.
Key:
CCRF-CEM [1] = assay: Induction of apoptosis in human CEM cells assessed as increase in relative activity of caspase-3/7 at 15 uM using AC-DEVD-AMC as substrate after 24 hrs by fluorescence based assay; assay type: functional, cell-based
BJ = assay: Cytotoxicity against human BJ cells assessed as reduction in cell viability after 72 hrs by resazurin dye based assay
MCF7 = assay: Antiproliferative activity against human MCF7 cells assessed as reduction in cell viability after 72 hrs by resazurin dye based assay; assay type: functional; conditions: MCF7, 72 h
CCRF-CEM [2] = assay: Induction of apoptosis in human CEM cells assessed as PARP-1 cleavage at 15 uM after 24 hrs by Western blot analysis; assay type: functional, cell-based
CCRF-CEM [3] = assay: Antiproliferative activity against human CEM cells assessed as reduction in cell viability after 72 hrs by resazurin dye based assay; assay type: functional
[4] = biological target: T1, Sodium/potassium-transporting ATPase (Sus scrofa) (UniProt P05027+P05024+D2WKD8+D2WKD7+F1ST41); assay: Inhibition of porcine kidney Na+/K+-ATPase assessed as residual activity at 50 uM preincubated for 2 mins followed by ATP addition and measured after 6 mins by bagin-sky assay relative to untreated control; assay type: protein-complex assay
CCRF-CEM [5] = assay: Induction of apoptosis in human CEM cells assessed as caspase-7 fragmentation at 15 uM after 24 hrs by Western blot analysis; assay type: functional, cell-based
CCRF-CEM [6] = assay: Cell cycle arrest in human CEM cells assessed as accumulation of cells at sub-G1 phase at 15 uM after 24 hrs by RNase A/propidium iodide staining-based flow cytometric analysis; assay type: functional
CCRF-CEM [7] = assay: Induction of apoptosis in human CEM cells assessed as decrease in Mcl-1 expression at 15 uM after 24 hrs by Western blot analysis; assay type: functional, cell-based
HeLa = assay: Antiproliferative activity against human HeLa cells assessed as reduction in cell viability after 72 hrs by resazurin dye based assay; assay type: functional
A2780 = assay: Antiproliferative activity against human A2780 cells assessed as reduction in cell viability after 72 hrs by resazurin dye based assay; assay type: functional; conditions: A2780, 72 h
CCRF-CEM [8] = assay: Effect on cell cycle analysis in human CEM cells at 15 uM after 24 hrs by RNase A/propidium iodide staining-based flow cytometric analysis; assay type: functional
Hep 3B2 = assay: Antiproliferative activity against human Hep3B cells assessed as reduction in cell viability after 72 hrs by resazurin dye based assay; assay type: functional
CCRF-CEM [9] = assay: Cell cycle arrest in human CEM cells assessed as increase in accumulation of cells in S phase after 24 hrs by RNase A/propidium iodide staining-based flow cytometric analysis; assay type: functional
CCRF-CEM [10] = assay: Cell cycle arrest in human CEM cells assessed as decrease in cell population at G0/G1 phase at 15 uM after 24 hrs by RNase A/propidium iodide staining-based flow cytometric analysis; assay type: functional
CCRF-CEM [11] = assay: Cell cycle arrest in human CEM cells assessed as increase in accumulation of cells in G2/M phase after 24 hrs by RNase A/propidium iodide staining-based flow cytometric analysis; assay type: functional
CCRF-CEM [12] = assay: Induction of apoptosis in human CEM cells assessed as increase in relative activity of caspase-3/7 at 15 uM using AC-DEVD-AMC as substrate after 24 hrs by fluorescence based assay relative to untreated control; assay type: functional
CCRF-CEM [13] = assay: Cell cycle arrest in human CEM cells assessed as increase in cell population at G0/G1 phase at 15 uM after 24 hrs by RNase A/propidium iodide staining-based flow cytometric analysis; assay type: functional
CCRF-CEM [14] = assay: Cell cycle arrest in human CEM cells assessed as reduction in cell population at S phase at 15 uM after 24 hrs by RNase A/propidium iodide staining-based flow cytometric analysis; assay type: functional
[15] = biological target: T1, Sodium/potassium-transporting ATPase (Sus scrofa); assay: Inhibition of porcine kidney Na+/K+-ATPase at 50 uM preincubated for 2 mins followed by ATP addition and measured after 6 mins by bagin-sky assay relative to Olean-drigenin; assay type: protein-complex assay

Row | SMILES | Activity (CCRF-CEM [1]) | IC50 (BJ) | IC50 (MCF7) | Activity (CCRF-CEM [2]) | IC50 (CCRF-CEM [3]) | Activity [4] | Activity (CCRF-CEM [5]) | Activity (CCRF-CEM [6]) | Activity (CCRF-CEM [7]) | IC50 (HeLa) | IC50 (A2780) | Activity (CCRF-CEM [8]) | IC50 (Hep 3B2) | Activity (CCRF-CEM [9]) | Activity (CCRF-CEM [10]) | Activity (CCRF-CEM [11]) | fold change (FC) (CCRF-CEM [12]) | Activity (CCRF-CEM [13]) | Activity (CCRF-CEM [14]) | inhibition [15]
1 | CO[C@H]1CC[C@@]2(C)[C@@H](CC[C@@H]3[C@@H]2CC[C@]2(C)[C@@H](C4=CC(=O)OC4)[C@@H](OC(C)=O)[C@H]4O[C@]342)C1 | Active | 4.5 µM | 7.6 µM | Active | 2.5 µM | 25% | Active | Active | Active | 11.3 µM | 1.7 µM | – | – | – | – | – | – | – | – | –
2 | CO[C@H]1CC[C@@]2(C)[C@@H](CC[C@@H]3[C@@H]2CC[C@]2(C)[C@@H](c4ccoc4)[C@@H](OC(C)=O)C[C@]32O)C1 | – | > 50 µM | > 50 µM | – | > 50 µM | 75% | – | – | – | > 50 µM | > 50 µM | inactive | > 50 µM | – | – | – | – | – | – | –
3 | CO[C@H]1CC[C@@]2(C)[C@@H](CC[C@@H]3[C@@H]2CC[C@]2(C)[C@@H](C4=CC(=O)OC4)[C@@H](OC(C)=O)C[C@]32O)C1 | Active | 7.9 µM | 21.1 µM | Active | 5.8 µM | 24% | Active | Active | – | 14.8 µM | 5.9 µM | – | 7.7 µM | Dose-dependent effect | Active | Dose-dependent effect | – | – | – | –
4 | CO[C@H]1CC[C@@]2(C)[C@@H](CC[C@@H]3[C@@H]2CC[C@]2(C)[C@@H](C4=CC(=O)OC4)[C@@H](O)C[C@]32O)C1 | inactive | > 50 µM | > 50 µM | Active | 14.1 µM | 25% | Active | Active | – | > 50 µM | > 50 µM | – | – | – | – | – | – | – | – | –
5 | CO[C@H]1CC[C@@]2(C)[C@@H](CC[C@@H]3[C@@H]2CC[C@]2(C)[C@@H](c4ccoc4)[C@@H](O)[C@H]4O[C@]342)C1 | – | > 50 µM | 50 µM | – | 36.4 µM | 101% | – | – | – | 11.9 µM | 18.4 µM | – | 27.2 µM | – | – | – | – | – | – | –
6 | CO[C@H]1CC[C@@]2(C)[C@@H](CC[C@@H]3[C@@H]2CC[C@]2(C)[C@@H](C4=CC(=O)OC4)[C@@H](OC(C)=O)[C@@H]4O[C@@]342)C1 | – | 5.7 µM | 4.4 µM | Active | 1.3 µM | 104% | Active | Active | Active | 17.5 µM | 4.9 µM | – | > 50 µM | – | – | – | <=19 | – | – | –
7 | CO[C@H]1CC[C@@]2(C)[C@@H](CC[C@@H]3[C@@H]2CC[C@]2(C)[C@@H](C4=CC(=O)OC4)[C@@H](O)[C@H]4O[C@]342)C1 | – | > 50 µM | > 50 µM | – | > 50 µM | 75% | – | – | – | > 50 µM | > 50 µM | – | – | – | – | – | – | Active | Active | –
8 | CC(=O)O[C@H]1C[C@]2(O)[C@@H]3CC[C@@H]4C[C@@H](O)CC[C@]4(C)[C@H]3CC[C@]2(C)[C@H]1C1=CC(=O)OC1 | – | 0.1 µM | 0.8 µM | – | 0.2 µM | 75% | – | – | – | 0.2 µM | – | – | – | – | – | – | – | – | – | –
9 | CO[C@H]1C[C@H](O[C@H]2CC[C@@]3(C)[C@H](CC[C@@H]4[C@@H]3CC[C@]3(C)[C@@H](C5=CC(=O)OC5)[C@@H](OC(C)=O)C[C@]43O)C2)O[C@@H](C)[C@@H]1O [OLEANDRIN] | – | 0.026 µM | 0.033 µM | – | 0.019 µM | 49% | – | – | – | 0.062 µM | – | – | – | – | – | – | – | – | – | 25%
